Activity calls are given as the source filed them. The rule behind the calls is not given here.
How the values were obtained:
Mus musculus [1] = species on record: Mus musculus; assay: Myorelaxant effect in ddY mouse assessed as decrease in endurance latency time by rota-rod test; type: functional, organism-based
[2] = Sedative activity in ddY mouse assessed as decrease in spontaneous locomotor activity at 0.00004 mg administered via inhalation relative to control; set-up: scale not given: the % may be the effect or the level left; details: in vivo, inhaled_or_intranasal, at 40 ng
Mus musculus [3] = assay: Sleep-promoting activity in ddY mouse assessed as enhancement of pentobarbital-induced sleep resulting in prolonged sleeping time at 0.004 mg administered via inhalation relative to control; type: functional
[4] = Sedative activity in ddY mouse assessed as decrease in spontaneous locomotor activity when administered via inhalation relative to control; set-up: scale not given: the % may be the effect or the level left; details: in vivo, inhaled_or_intranasal
[5] = Sedative activity in ddY mouse assessed as decrease in spontaneous locomotor activity at 0.0004 mg administered via inhalation relative to control; set-up: scale not given: the % may be the effect or the level left; details: in vivo, inhaled_or_intranasal
[6] = Sedative activity in ddY mouse assessed as decrease in spontaneous locomotor activity at 0.004 mg administered via inhalation relative to control; set-up: scale not given: the % may be the effect or the level left; details: in vivo, inhaled_or_intranasal
[7] = Sedative activity in ddY mouse assessed as decrease in spontaneous locomotor activity at 0.04 mg administered via inhalation relative to control; set-up: scale not given: the % may be the effect or the level left; details: in vivo, inhaled_or_intranasal
[8] = Sedative activity in ddY mouse assessed as decrease in spontaneous locomotor activity at 0.4 mg administered via inhalation relative to control; set-up: scale not given: the % may be the effect or the level left; details: in vivo, inhaled_or_intranasal
[9] = Toxicity in mouse assessed as lethal dose; details: in vivo
[10] = Sedative activity in ddY mouse assessed as decrease in caffeine-induced spontaneous locomotor activity at 0.004 mg administered via inhalation post caffeine stimulation (reference value: 68 %); set-up: scale not given: the % may be the effect or the level left; details: in vivo, inhaled_or_intranasal
Mus musculus [11] = assay: Myorelaxant effect in ddY mouse assessed as decrease in endurance latency time at 0.004 mg administered via inhalation by rota-rod test; type: functional, organism-based
Mus musculus [12] = assay: Sleep-promoting activity in ddY mouse assessed as decrease in pentobarbital-induced sleep ing duration at 3 mg/kg relative to control; type: functional; set-up: scale not given: the % may be the effect or the level left
Mus musculus [13] = assay: Sleep-promoting activity in ddY mouse assessed as enhancement of pentobarbital-induced sleep resulting in prolonged sleeping time at 0.000004 mg administered via inhalation relative to control; type: functional; details: dose 4 ng
[14] = Sedative activity in ddY mouse assessed as decrease in caffeine-induced spontaneous locomotor activity at 0.000004 mg administered via inhalation post caffeine stimulation (reference value: 68 %); set-up: scale not given: the % may be the effect or the level left; details: in vivo, inhaled_or_intranasal, at 4 ng
Mus musculus [15] = assay: Myorelaxant effect in ddY mouse assessed as decrease in endurance latency time at 0.000004 mg administered via inhalation by rota-rod test; type: functional, organism-based; details: dose 4 ng

Q: Which Activity (Mus musculus [1]) does the source give for `CN1C(=O)CN=C(c2ccccc2)c2cc(Cl)ccc21` here?
A: Active

Q: Which Activity [2] does the source give for `CC(C)C12C=CC(C)(CC1)OO2` (configuration not stated) [ASCARIDOLE] here?
A: 64%

Q: And the Activity (Mus musculus [3])?
A: 42%

Q: And the Activity [4]?
A: 56%

Q: What about the Activity [5] of the same compound?
A: 52%

Q: What about the Activity [6] of the same compound?
A: 67%

Q: What about the Activity [7] of the same compound?
A: 64%

Q: And the Activity [8]?
A: 56%

Q: What about the LD50 [9] of the same compound?
A: 400 mg/kg

Q: What about the Activity [10] of the same compound?
A: 47%

Q: And the Activity (Mus musculus [11])?
A: inactive

Q: Which Activity (Mus musculus [12]) does the source give for `CCOC(=O)c1ncn2c1CN(C)C(=O)c1cc(F)ccc1-2` [FLUMAZENIL] here?
A: 31%

Q: Which results are given for `Cc1ccc(C(C)C)cc1` [P-CYMENE]?
A: Activity [2]: 69%; Activity (Mus musculus [13]): 77%; Activity [4]: 63%; Activity [5]: 57%; Activity [6]: 61%; Activity [7]: 67%; Activity [8]: 68%; LD50 [9]: 4750 mg/kg; Activity [14]: 50%; Activity (Mus musculus [15]): inactive

From ChEMBL document CHEMBL4834391, “Role of Ascaridole and p-Cymene in the Sleep-Promoting Effects of Dysphania ambrosioides Essential Oil via the GABAergic System in a ddY Mouse Inhalation Model” (J Nat Prod, 2021)
